According to patent publication US8815951B2, “Inhibitors of epoxide hydrolases for the treatment of inflammation” (The Regents of the University of California, priority 1996, dated 2014):
Values joined by “and” are separate entries in the source; they are usually repeats but may differ in a detail not shown here. Equal entries are not always repeated. “Also recorded” adds a separate entry of the source. Where two headings read alike, the source gives them in different places.

What was measured:
[1] = target: recombinant mouse sEH (MsEH) (Mus musculus (Mouse), UniProt P34914); assay: Spectrophotometric sEH inhibition assay (NEP2C substrate), recombinant mouse sEH; assay type: biochemical
Procedure: (§1) Recombinant mouse sEH (MsEH) and human sEH (HsEH) were produced in a baculovirus expression system as previously reported. […] The expressed proteins were purified from cell lysate by affinity chromatography. […] Protein concentration was quantified using the Pierce BCA assay using bovine serum albumin as the calibrating standard.
(§2) The mixture was incubated at 30° C. for 5 minutes. […] Assays were performed in quadruplicate.

Human sEH (HsEH) = Human sEH (HsEH) (Homo sapiens (Human), UniProt P34913); assay: Spectrophotometric sEH inhibition assay (NEP2C substrate), recombinant human sEH; assay type: biochemical
Procedure: as §1, §2

[2] = system: SHR (spontaneously hypertensive rat); assay: Systolic blood pressure by tail cuff in SHR; assay type: in vivo; settings: for decrease in systolic blood pressure 6 hr after the dose / time by which blood pressure returned to baseline after the dose: single dose 3 mg/kg DCU or equimolar; for effect on blood pressure in the SHR: dose equimolar to 3 mg/kg DCU
Excerpt: Animals. Male SHR and WKY rats 3-13 wks of age were purchased from Charles River Laboratories (Wilmington, Mass.) and housed in a controlled environment with 12 hr light/dark cycles and fed standard laboratory chow for □ 3 days before euthanasia. All animal use was approved by the University of California San Francisco Committee on Animal Research and followed the National Institutes of Health guidelines for the care and use of laboratory animals. For isolation of kidney subcellular fractions, rats were anesthetized with methoxyflurane, the abdominal cavities were opened, and the kidneys were perfused with ice-cold saline. Perfused kidneys were rapidly removed, the cortex and medulla dissected out and immersed in liquid nitrogen. All tissue was stored at −80° C. until preparation of microsomes. In some cases WKY and SHR rats were housed in metabolic cages for up to three days and urine was collected over triphenylphosphine in 24 hr intervals. The urine volume was noted and aliquots were stored at −80° C. prior to extraction and quantitation of DHETs and EETs. […] Systolic blood pressure was measured at room temperature by a photoelectric tail cuff system (Model 179, IITC, Inc., Woodland Hills, Calif.) for up to four days following the dose of inhibitor. Blood pressures are reported as the average of three separate readings over a 30 min period. […] Similar inhibition studies were carried out with equimolar doses of N-cyclohexyl-N′-dodecylurea, N-cyclohexyl-N′-ethylurea and dodecylaamine.

[3] = system: insect cell culture expressing rat mEH; assay: Toxicity of epoxide-containing xenobiotics in insect cell culture expressing rat mEH; assay type: cell-based
Excerpt: The micosomal enzyme play a significant role in the metabolism of xenobiotics such as polyaromatic toxicants. Additionally, polymorphism studies have underlined a potential role of this enzyme in relation to several diseases, such as emphysema, spontaneous abortion and several forms of cancer. Inhibition of recombinant rat and human mEH can be obtained using primary ureas, amides, and amines. […].

Swiss Webster mice = assay: Leukotoxin/isoleukotoxin-induced death in mice; assay type: in vivo, mouse; settings: pretreatment 400 mg/kg i.p. in corn oil, 30 minutes before leukotoxin/isoleukotoxin methyl esters 700 mg/kg i.v.
Procedure: Male Swiss Webster mice (25-28 g) were purchased from Simonsen, Gilroy, Calif. The animals had free access to water and food. […] After 30 minutes of the pretreatment, the mice were treated intravenously through the tail vein with a 1:1 mixture of leukotoxin/isoleukotoxin methyl esters in ethanol (700 mg/kg, 1.0 ml/kg).

CYP epoxygenase = assay: Renal microsomal arachidonic acid metabolism, CYP epoxygenase activity; assay type: biochemical, rat; settings: concentrations up to 25 μM
Procedure: Renal microsomal arachidonic acid metabolism. Microsomes, cytosol, and S9 fractions were prepared from the renal cortex or outer medulla samples from a single animal as described previously (Kroetz, D. L. et al. Mol Pharmacol 52, 362-372 (1997), Su, P. et al. Am J Physiol 275, […]-438 (1998)). Reaction conditions for the in vitro determination of arachidonic acid epoxygenase activity, metabolite extraction and HPLC analysis were described in detail elsewhere (Su, P. et al. Am J Physiol 275, […]-438 (1998)).

CYP ω-hydroxylase = assay: Renal microsomal arachidonic acid metabolism, ω-hydroxylase activity; assay type: biochemical, rat; settings: concentrations up to 25 μM
[4] = system: 14,15-EET hydrolysis in vivo (sEH), SHR; assay: Urinary DHET and EET excretion in SHR (GC-MS); parameters: species or system rat; settings: 3 mg/kg i.p. daily, 24 hr urine after third dose, vehicle 2020
WKY rats = assay: Systolic blood pressure by tail cuff in WKY rats; assay type: in vivo, rat; settings: single 3 mg/kg dose
Excerpt: Animals. Male SHR and WKY rats 3-13 wks of age were purchased from Charles River Laboratories (Wilmington, Mass.) and housed in a controlled environment with 12 hr light/dark cycles and fed standard laboratory chow for □ 3 days before euthanasia. All animal use was approved by the University of California San Francisco Committee on Animal Research and followed the National Institutes of Health guidelines for the care and use of laboratory animals. For isolation of kidney subcellular fractions, rats were anesthetized with methoxyflurane, the abdominal cavities were opened, and the kidneys were perfused with ice-cold saline. Perfused kidneys were rapidly removed, the cortex and medulla dissected out and immersed in liquid nitrogen. All tissue was stored at −80° C. until preparation of microsomes. In some cases WKY and SHR rats were housed in metabolic cages for up to three days and urine was collected over triphenylphosphine in 24 hr intervals. The urine volume was noted and aliquots were stored at −80° C. prior to extraction and quantitation of DHETs and EETs. […] Systolic blood pressure was measured at room temperature by a photoelectric tail cuff system (Model 179, IITC, Inc., Woodland Hills, Calif.) for up to four days following the dose of inhibitor. Blood pressures are reported as the average of three separate readings over a 30 min period. […]

[5] = Table 2, MsEH […], read-out: Mouse sEH IC50
[6] = Table 1, MsEH […], read-out: Mouse sEH IC50
[7] = unpublished data, C. Morisseau and B. Hammock, 2000, read-out: IC50 with mouse sEH
[8] = Table 1, HsEH 0.2 μM (text b16: […])

IC50 [1, 5] [µM] | IC50 (Human sEH (HsEH); Table 2, HsEH […]) [µM] | SMILES | also measured
1200 ± 25 |  | O=[N+]([O-])c1ccc(C2OC2CO)cc1 (stereo not drawn) [4-NO2—C6H4 / H / CH—OH / R,R] | 
2.9 ± 0.3 | 0.3 ± 0.1 | O=C(c1ccccc1)C1OC1c1ccccc1 (racemic) [C6H5 / C6H5 / C═O / ±] | 
163 ± 11 | 269 ± 5 | CC(=O)C1OC1c1ccc([N+](=O)[O-])cc1 (racemic) [4-NO2—C6H4 / CH3 / C═O / ±] | 
5 ± 1 |  | O=[N+]([O-])c1ccc(C2OC2CO)cc1 (racemic) [4-NO2—C6H4 / H / CH—OH / ±] | 
1.6 ± 0.6 |  | O=[N+]([O-])c1ccc(C2OC2CO)cc1 (stereo not drawn) [4-NO2—C6H4 / H / CH—OH / S,S] | 
6.5 ± 0.2 | 39 ± 1 | CC(O)C1OC1c1ccc([N+](=O)[O-])cc1 (racemic) [4-NO2—C6H4 / CH3 / CH—OH / ±] | 

Continued, molecule first:

SMILES | IC50 [1, 5] [µM] | IC50 (Human sEH (HsEH); Table 2, HsEH […]) [µM] | also measured
Cc1ccc(C(=O)C2OC2c2ccc(-c3ccccc3)cc2)cc1 (racemic) [4-C6H5—C6H4 / 4-CH3—C6H4 / C═O / ±] | 0.1 ± 0.01 | 0.19 ± 0.03 | 
CCCCCCCCCCCCNC(=O)CC1CCCCC1 [Compound 514] |  |  | IC50 [1, 6]: 0.27 ± 0.01 µM
[O-][S+](c1ccccc1)C1OC1c1ccccc1 (racemic) [C6H5 / C6H5 / S—O / ±] | 2.3 ± 0.4 | 0.31 ± 0.02 | 
ON=C(c1ccccc1)C1OC1c1ccc(-c2ccccc2)cc1 (racemic) [4-C6H5—C6H4 / C6H5 / C═NOH / ±] | 42 ± 3 | 35 ± 1 | 
O=C(c1ccccc1)C1OC1c1ccc(F)cc1 (racemic) [4-F-C6H4 / C6H5 / C═O / ±] | 1.3 ± 0.3 | 0.3 ± 0.1 | 
OC(c1ccccc1)C1OC1c1ccc(-c2ccccc2)cc1 (racemic) [4-C6H5—C6H4 / C6H5 / CH—OH / ±] | 0.51 ± 0.04 | 0.72 ± 0.03 | 
OC(c1ccccc1)C1OC1c1ccccc1 (racemic) [C6H5 / C6H5 / CH—OH / ±] | 12.6 ± 0.9 | 22 ± 2 | 
CCCCCCCCCCCCNC(=O)NC1CCCCC1 [N-cyclohexyl-N′-dodecylurea] |  |  | IC50 [1, 7]: 0.05 ± 0.01 µM; decrease in systolic blood pressure 6 hr after the dose ([2]; SHR): 12±2 mm Hg and 12 mm Hg; time by which blood pressure returned to baseline after the dose ([2]; SHR): ≤ 24 h
O=C(Nc1ccc(Cl)cc1)NC1CCCCC1 [Compound 20] |  |  | IC50 [1, 6]: 0.19 ± 0.02 µM; IC50 (Human sEH (HsEH); [8]): 0.4 ± 0.05 µM
O=C(Nc1ccc(O)cc1)NC1CCCCC1 [Compound 128] |  |  | IC50 [1, 6]: 0.79 ± 0.08 µM; IC50 (Human sEH (HsEH); [8]): 11.1 ± 0.8 µM
OCC1OC1c1ccccc1 (stereo not drawn) [C6H5 / H / CH—OH / S,S] | 2400 ± 46 |  | 
CCCCCCCC/C=C/CCCCCCCC(N)=O [elaidamide] |  |  | effect on toxicity of epoxide-containing xenobiotics [3]: enhances the toxicity effects of epoxide-containing xenobiotics
CCCCCCCCCCCCN [dodecylamine, reference compound] |  |  | effect on blood pressure in the SHR [2]: no effect
[O-][S+](c1ccccc1)C1OC1c1ccc(-c2ccccc2)cc1 (racemic) [4-C6H5—C6H4 / C6H5 / S═O / ±] | 73 ± 5 | 70 ± 3 | 
CCCCCCCCCCCCNC(=O)NC1CCCCC1 [Compound 297] |  |  | IC50 [1, 6]: 0.05 ± 0.01 µM
COC(c1ccccc1)C1OC1c1ccc(-c2ccccc2)cc1 (racemic) [4-C6H5—C6H4 / C6H5 / CH—OCH3 / ±] | 0.48 ± 0.05 | 1.36 ± 0.07 | 
OCC1OC1c1ccccc1 (stereo not drawn) [C6H5 / H / CH—OH / R,R] | 1100 ± 23 |  | 
COC(c1ccccc1)C1OC1c1ccccc1 (racemic) [C6H5 / C6H5 / CH—OCH3 / ±] | 103 ± 5 | 34 ± 1 | 
CCNC(=O)NC1CCCCC1 [N-cyclohexyl-N′-ethylurea] |  |  | IC50 [1, 7]: 51.7 ± 0.7 µM; effect on blood pressure in the SHR [2]: no effect
Cc1ccc(C(O)C2OC2c2ccc(-c3ccccc3)cc2)cc1 (racemic) [4-C6H5—C6H4 / 4-CH3—C6H4 / CH—OH / ±] | 0.09 ± 0.01 | 0.15 ± 0.02 | 
OC(c1ccccc1)C1OC1c1ccc(F)cc1 (racemic) [4-F-C6H4 / C6H5 / CH—OH / ±] | 72 ± 16 | 18 ± 2 | 
O=C(NC1CCCCC1)NC1CCCCC1 [DCU, N,N′-dicyclohexylurea] |  |  | effect on animal death induced by leukotoxin/isoleukotoxin (Swiss Webster mice): either blocked the animal death induced by leukotoxin/isoleukotoxin or lengthened the lives of the mice; effect on CYP epoxygenase activity (CYP epoxygenase): no effect; effect on ω-hydroxylase activity (CYP ω-hydroxylase): no effect; excretion of total epoxygenase-derived products (EETs and DHETs) [4]: 1237 pg/mg creatinine; decrease in systolic blood pressure 6 hr after the dose ([2]; SHR): 22±4 mm Hg and 22 mm Hg; time by which blood pressure returned to baseline after the dose ([2]; SHR): ≤ 24 h; systolic blood pressure ([2]; SHR, three to five hr after the fourth daily 3 mg/kg dose, vehicle 128±5): 102±5 mm Hg; effect on blood pressure in the WKY (WKY rats): no effect; also recorded: unaffected
O=C(c1ccccc1)C1OC1c1ccc(-c2c(F)c(F)c(F)c(F)c2F)cc1 (racemic) [4-C6F5—C6H4 / C6H5 / C═O / ±] | 0.14 ± 0.01 | 0.2 ± 0.01 | 
CC(C)(C)CC(C)(C)NC(=O)NC1CCCCC1 [Compound 347] |  |  | IC50 [1, 6]: 0.07 ± 0.01 µM; IC50 (Human sEH (HsEH); [8]): 3.1 ± 0.07 µM
ON=C(c1ccccc1)C1OC1c1ccccc1 (racemic) [C6H5 / C6H5 / C═NOH / ±] | 3.5 ± 0.5 | 0.29 ± 0.01 | 
CCCCCCCCNC(=O)NCCC [Compound 429] |  |  | IC50 [1, 6]: 0.38 ± 0.04 µM; IC50 (Human sEH (HsEH); [8]): 1.7 ± 0.4 µM
O=C(Nc1ccc(Cl)c(Cl)c1)Nc1ccc(Cl)c(Cl)c1 [Compound 299] |  |  | IC50 [1, 6]: 0.7 ± 0.1 µM
